Test results published in ChEMBL document CHEMBL4414638, “Structure-Activity Relationship of Peptide-Conjugated Chloramphenicol for Inhibiting Escherichia coli” (J Med Chem, 2019).
Converted amounts (≈) assume the structure as drawn. *1 amine or outer side, *2 acyl side, *3 side chain or, on linkers, in order; H or OH if unused. Where a SMILES comes first, the peptide text is derived from it. [ ]: non-standard residue; d: D form. The star is where a group is joined. X1 = O=C(CCC(=O)[*:2])OC[C@@H](N[*:1])[C@H](O)c1ccc([N+](=O)[O-])cc1; Dichloroacetyl = O=C(C(Cl)Cl)*

What was measured:
Escherichia coli = test: Antibacterial activity against Escherichia coli K-12 assessed as reduction in bacterial growth incubated for 16 hrs; type: functional; conditions: K-12, 16 h
[1] = Cytotoxicity in human HS5 cells assessed as reduction in cell viability at 20 uM to 2 mM incubated up to […]rs relative to chloramphenicol; type: cell-based
HEK293 = test: Cytotoxicity in human HEK293 cells assessed as reduction in cell viability at 20 uM […] relative to chloramphenicol; type: cell-based; conditions: hek293, 20 µM
[2] = Drug metabolism in human serum assessed as formation of chloramphenicol at 200 uM at 37 degC after 24 hrs by LC-MS analysis relative to control

Compound	MIC (Escherichia coli)	Activity [1]	Activity (HEK293)	Drug metabolism [2]
COC(=O)CCC(=O)OC[C@@H](NC(=O)C(Cl)Cl)[C@H](O)c1ccc([N+](=O)[O-])cc1	> 200 µM	–	–	–
C[C@@H](NC(=O)CCC(=O)OC[C@@H](NC(=O)C(Cl)Cl)[C@H](O)c1ccc([N+](=O)[O-])cc1)C(=O)O	> 200 µM	–	–	–
C[C@@H](NC(=O)CNC(=O)CCC(=O)OC[C@@H](NC(=O)C(Cl)Cl)[C@H](O)c1ccc([N+](=O)[O-])cc1)C(=O)O	20 µM (≈ 11 µg/mL)	Non-Toxic	Toxic	–
O=C(O)CCC(=O)OC[C@@H](NC(=O)C(Cl)Cl)[C@H](O)c1ccc([N+](=O)[O-])cc1 [CHLORAMPHENICOL SUCCINIC ACID]	> 200 µM	Non-Toxic	Toxic	–
O=C(CCC(=O)OC[C@@H](NC(=O)C(Cl)Cl)[C@H](O)c1ccc([N+](=O)[O-])cc1)NCC(=O)NCC(=O)N[C@H](Cc1ccccc1)C(=O)N[C@H](Cc1ccccc1)C(=O)O	20 µM (≈ 16.6 µg/mL)	Non-Toxic	Toxic	Metabolite_Detected
O=C(O)CNC(=O)CNC(=O)CNC(=O)CNC(=O)CCC(=O)OC[C@@H](NC(=O)C(Cl)Cl)[C@H](O)c1ccc([N+](=O)[O-])cc1 (Dichloroacetyl-[X1]GGGG-OH)	20 µM (≈ 13 µg/mL)	Non-Toxic	Toxic	–
C[C@H](NC(=O)[C@H](C)NC(=O)CCC(=O)OC[C@@H](NC(=O)C(Cl)Cl)[C@H](O)c1ccc([N+](=O)[O-])cc1)C(=O)O	100 µM (≈ 56.5 µg/mL)	–	–	–
CNC(=O)CNC(=O)CNC(=O)CCC(=O)OC[C@@H](NC(=O)C(Cl)Cl)[C@H](O)c1ccc([N+](=O)[O-])cc1	20 µM (≈ 11 µg/mL)	Non-Toxic	Toxic	–
O=C(N[C@H](CO)[C@H](O)c1ccc([N+](=O)[O-])cc1)C(Cl)Cl [CHLORAMPHENICOL]	20 µM (≈ 6.46 µg/mL)	–	Toxic	–
O=C(CCC(=O)OC[C@@H](NC(=O)C(Cl)Cl)[C@H](O)c1ccc([N+](=O)[O-])cc1)NCCS(=O)(=O)O	40 µM (≈ 21.2 µg/mL)	–	–	–

Continued, in another order:

MIC (Escherichia coli)	Compound	Activity [1]	Activity (HEK293)	Drug metabolism [2]
> 200 µM	O=C(O)CNC(=O)CNC(=O)[C@@H](Cc1ccc2ccccc2c1)NC(=O)[C@@H](Cc1ccccc1)NC(=O)[C@@H](Cc1ccccc1)NC(=O)CCC(=O)OC[C@@H](NC(=O)C(Cl)Cl)[C@H](O)c1ccc([N+](=O)[O-])cc1	–	–	–
> 200 µM	O=C(O)C[C@@H](NC(=O)[C@@H](CC(=O)O)NC(=O)CCC(=O)OC[C@@H](NC(=O)C(Cl)Cl)[C@H](O)c1ccc([N+](=O)[O-])cc1)C(=O)O	–	–	–
100 µM (≈ 63.6 µg/mL)	C[C@H](NC(=O)[C@H](C)NC(=O)[C@H](C)NC(=O)CCC(=O)OC[C@@H](NC(=O)C(Cl)Cl)[C@H](O)c1ccc([N+](=O)[O-])cc1)C(=O)O	–	–	–
200 µM (≈ 147 µg/mL)	N=C(N)NCCC[C@@H](NC(=O)[C@@H](CCCNC(=N)N)NC(=O)CCC(=O)OC[C@@H](NC(=O)C(Cl)Cl)[C@H](O)c1ccc([N+](=O)[O-])cc1)C(=O)O	–	–	–
200 µM (≈ 131 µg/mL)	O=C(O)C[C@H](NC(=O)[C@H](CC(=O)O)NC(=O)CCC(=O)OC[C@@H](NC(=O)C(Cl)Cl)[C@H](O)c1ccc([N+](=O)[O-])cc1)C(=O)O	–	–	–
> 200 µM	O=C(CCC(=O)OC[C@@H](NC(=O)C(Cl)Cl)[C@H](O)c1ccc([N+](=O)[O-])cc1)N[C@H](Cc1ccccc1)C(=O)N[C@H](Cc1ccccc1)C(=O)N[C@H](Cc1ccc2ccccc2c1)C(=O)O	–	–	–
